The experiment deals with T1, human kiss1 receptor (GPR54) (Homo sapiens, UniProt Q969F8).
T1 construct: host or cells: NFAT-bla CHO-K1 cells (Chinese hamster ovary), purchased recombinant cell line
Put plainly: Kiss1 receptor (GPR54) binding activity of agonists, FRET detection in NFAT-bla CHO-K1 cells. In kind it is cell-based. As to conditions: GPR54, measured according to the method of effect Embodiment 1, preliminary data.

The mark [1] stands for this setting: read-out: Preliminary measurement data (GPR54) EC50.

Read-outs that look alike come from different tables or passages of the source. Starred links: 1 amine or outer side, 2 acyl side, 3 side chain; linkers in the order of their positions; H or OH if unused. Non-standard residues stand in square brackets, D forms with d. Residues, ends and D or L forms follow the SMILES beside them. Ala(1-Me-3-pyridinium) = C[n+]1cccc(C[C@H](N)C(=O)O)c1; X11 = O=C(c1nnc([C@H](Cc2ccccc2)N[*:1])[nH]1)[*:2]; X14 = O=C(c1cnc([C@H](Cc2ccccc2)N[*:1])[nH]1)[*:2]; dPhe(2,4-Cl2) = N[C@H](Cc1ccc(Cl)cc1Cl)C(=O)O; dPhe(3-Cl) = N[C@H](Cc1cccc(Cl)c1)C(=O)O; dPhe(4-Cl) = N[C@H](Cc1ccc(Cl)cc1)C(=O)O; X12 = O=C([C@@H]1Cc2ccccc2N1[*:1])[*:2]; Pro(4,4-F2) = O=C(O)[C@@H]1CC(F)(F)CN1; dAla(2-furyl) = N[C@H](Cc1ccco1)C(=O)O; dPhe(4-F) = N[C@H](Cc1ccc(F)cc1)C(=O)O; azaPhe = O=C(N(Cc1ccccc1)N[*:1])[*:2]; Arg(Me) = CNC(=N)NCCC[C@H](N)C(=O)O; Hyp = O=C(O)[C@@H]1C[C@@H](O)CN1; Tic = O=C(O)[C@@H]1Cc2ccccc2CN1; 2Thi = N[C@@H](Cc1cccs1)C(=O)O; Pip = O=C(O)[C@@H]1CCCCN1; dPip = O=C(O)[C@H]1CCCCN1; Ac6c = NC1(C(=O)O)CCCCC1; Aze = O=C(O)[C@@H]1CCN1; azaGly = NNC(=O)O

The results in this text go back to patent US11427615B2, “Peptide compound and application thereof, and composition containing peptide compound” (XDCEXPLORER (SHANGHAI) CO., LTD., priority 2017, dated 2022).

T1 sequence (Q969F8 whole entry): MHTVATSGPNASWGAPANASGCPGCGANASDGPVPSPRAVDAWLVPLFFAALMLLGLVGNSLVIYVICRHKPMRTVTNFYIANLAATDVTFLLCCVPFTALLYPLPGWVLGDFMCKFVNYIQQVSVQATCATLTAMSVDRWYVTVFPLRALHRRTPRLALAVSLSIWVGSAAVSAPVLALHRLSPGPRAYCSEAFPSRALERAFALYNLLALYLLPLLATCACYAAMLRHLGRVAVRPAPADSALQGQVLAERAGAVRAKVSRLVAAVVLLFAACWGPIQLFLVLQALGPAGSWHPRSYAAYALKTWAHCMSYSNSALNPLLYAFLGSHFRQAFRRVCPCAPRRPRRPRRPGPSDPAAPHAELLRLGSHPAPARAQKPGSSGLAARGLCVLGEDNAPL

Take `CNC(=N)NCCC[C@H](NC(=O)[C@H](CC(C)C)NC(=O)C1(NC(=O)[C@H](Cc2ccccc2)NC(=O)[C@@H](NC(=O)[C@H](CC(N)=O)NC(=O)[C@H](Cc2c[nH]c3ccccc23)NC(=O)[C@H](Cc2cccs2)NC(=O)[C@@H](Cc2ccc(Cl)cc2Cl)NC(C)=O)[C@@H](C)O)CCCCC1)C(=O)N[C@@H](Cc1c[nH]c2ccccc12)C(N)=O` [YA-207, Ac-[D-Phe(2,4-DiCl)]-Thi-Trp-Asn-Thr-Phe-A6c-Leu-Arg(Me)-Trp-NH2] (Ac-[dPhe(2,4-Cl2)][2Thi]WNTF[Ac6c]L[Arg(Me)]W-NH2): the EC50 under setting [1] worked out at 90 nM.
The same measure, in the same setting: in the case of `CNC(=N)NCCC[C@H](NC(=O)[C@H](CC(C)C)NC(=O)c1cnc([C@H](Cc2ccccc2)NC(=O)[C@@H](NC(=O)[C@H](CC(N)=O)NC(=O)[C@@H]2C[C@@H](O)CN2C(=O)[C@@H](Cc2ccc(O)cc2)NC(C)=O)[C@@H](C)O)[nH]1)C(=O)N[C@@H](Cc1c[nH]c2ccccc12)C(N)=O` [YA-208, Ac-(D-Tyr)-Hyp-Asn-Thr-{(S)-2-(1-amino-2-phenylethyl)-1H-imidazole-5-carboxylic acid}-Leu-Arg(Me)-Trp-NH2] (Ac-[dY][Hyp]NT[X14]L[Arg(Me)]W-NH2) it was 1.09 nM; in that of `CNC(=N)NCCC[C@H](NC(=O)[C@H](CC(C)C)NC(=O)c1nnc([C@H](Cc2ccccc2)NC(=O)[C@@H](NC(=O)[C@H](CC(N)=O)NC(=O)[C@@H]2C[C@@H](O)CN2C(=O)[C@@H](Cc2ccc(O)cc2)NC(C)=O)[C@@H](C)O)[nH]1)C(=O)N[C@@H](Cc1c[nH]c2ccccc12)C(N)=O` [YA-209, Ac-(D-Tyr)-Hyp-Asn-Thr-{(S)-5-(1-amino-2-phenylethyl)-4H-1,2,4-triazole-3-carboxylic acid}-Leu-Arg(Me)-Trp-NH2] (Ac-[dY][Hyp]NT[X11]L[Arg(Me)]W-NH2), 1.4 nM.
For `CNC(=N)NCCC[C@H](NC(=O)[C@H](CC(C)C)NC(=O)C1(NC(=O)[C@H](Cc2ccccc2)NC(=O)[C@@H](NC(=O)[C@H](CC(N)=O)NC(=O)[C@@H]2CCCCN2C(=O)[C@@H](Cc2ccc(F)cc2)NC(C)=O)[C@@H](C)O)CCCCC1)C(=O)N[C@@H](Cc1c[nH]c2ccccc12)C(N)=O` [YA-210, Ac-[D-Phe(4-F)]-(S-Pip)-Asn-Thr-Phe-A6c-Leu-Arg(Me)-Trp-NH2] (Ac-[dPhe(4-F)][Pip]NTF[Ac6c]L[Arg(Me)]W-NH2), under setting [1], the EC50 turned out to be 1.47 nM.
On the same count and under the same terms, to `CNC(=N)NCCC[C@H](NC(=O)[C@H](CC(C)C)NC(=O)[C@@H]1CCN1C(=O)[C@H](Cc1ccccc1)NC(=O)[C@@H](NC(=O)[C@H](CC(N)=O)NC(=O)[C@@H]1CCCCN1C(=O)[C@@H](Cc1ccc(F)cc1)NC(C)=O)[C@@H](C)O)C(=O)N[C@@H](Cc1c[nH]c2ccccc12)C(N)=O` [YA-211, Ac-[D-Phe(4-F)]-(S-Pip)-Asn-Thr-Phe-Aze-Leu-Arg(Me)-Trp-NH2] (Ac-[dPhe(4-F)][Pip]NTF[Aze]L[Arg(Me)]W-NH2) belongs 1.13 nM; to `CNC(=N)NCCC[C@H](NC(=O)[C@H](CC(C)C)NC(=O)C1(NC(=O)[C@H](Cc2ccccc2)NC(=O)[C@@H](NC(=O)[C@H](CC(N)=O)NC(=O)[C@@H]2CC(F)(F)CN2C(=O)[C@@H](Cc2ccc(F)cc2)NC(C)=O)[C@@H](C)O)CCCCC1)C(=O)N[C@@H](Cc1c[nH]c2ccccc12)C(N)=O` [YA-212, Ac-[D-Phe(4-F)]-Pro(diF)-Asn-Thr-Phe-A6c-Leu-Arg(Me)-Trp-NH2] (Ac-[dPhe(4-F)][Pro(4,4-F2)]NTF[Ac6c]L[Arg(Me)]W-NH2), 0.5 nM; to `CNC(=N)NCCC[C@H](NC(=O)[C@H](CC(C)C)NC(=O)[C@@H]1CCN1C(=O)[C@H](Cc1ccccc1)NC(=O)[C@@H](NC(=O)[C@H](CC(N)=O)NC(=O)[C@@H]1CC(F)(F)CN1C(=O)[C@@H](Cc1ccc(F)cc1)NC(C)=O)[C@@H](C)O)C(=O)N[C@@H](Cc1c[nH]c2ccccc12)C(N)=O` [YA-213, Ac-[D-Phe(4-F)]-Pro(diF)-Asn-Thr-Phe-Aze-Leu-Arg(Me)-Trp-NH2] (Ac-[dPhe(4-F)][Pro(4,4-F2)]NTF[Aze]L[Arg(Me)]W-NH2), 0.4 nM.
Still for that read-out and setting: in the case of `CNC(=N)NCCC[C@H](NC(=O)[C@H](CC(C)C)NC(=O)NNC(=O)[C@H](Cc1ccccc1)NC(=O)[C@@H](NC(=O)[C@H](CC(N)=O)NC(=O)[C@@H]1C[C@@H](O)CN1C(=O)[C@@H](Cc1ccc(Cl)cc1)NC(C)=O)[C@@H](C)O)C(=O)N[C@@H](Cc1c[nH]c2ccccc12)C(N)=O` [YA-214, Ac-[D-Phe(4-Cl)]-Hyp-Asn-Thr-Phe-azaGly-Leu-Arg(Me)-Trp-NH2] (Ac-[dPhe(4-Cl)][Hyp]NTF[azaGly]L[Arg(Me)]W-NH2) it was 0.083 nM; in that of `CNC(=N)NCCC[C@H](NC(=O)[C@H](CC(C)C)NC(=O)NNC(=O)[C@H](Cc1ccccc1)NC(=O)[C@@H](NC(=O)[C@H](CC(N)=O)NC(=O)[C@@H]1C[C@@H](O)CN1C(=O)[C@@H](Cc1cccc(Cl)c1)NC(C)=O)[C@@H](C)O)C(=O)N[C@@H](Cc1c[nH]c2ccccc12)C(N)=O` [YA-215, Ac-[D-Phe(3-Cl)]-Hyp-Asn-Thr-Phe-azaGly-Leu-Arg(Me)-Trp-NH2] (Ac-[dPhe(3-Cl)][Hyp]NTF[azaGly]L[Arg(Me)]W-NH2), 0.122 nM.
On the same count and under the same terms, to `CNC(=N)NCCC[C@H](NC(=O)[C@H](CC(C)C)NC(=O)[C@@H]1Cc2ccccc2N1C(=O)[C@H](Cc1ccccc1)NC(=O)[C@@H](NC(=O)[C@H](CC(N)=O)NC(=O)[C@@H]1C[C@@H](O)CN1C(=O)[C@@H](Cc1ccc(O)cc1)NC(C)=O)[C@@H](C)O)C(=O)N[C@@H](Cc1c[nH]c2ccccc12)C(N)=O` [YA-221, Ac-D-Tyr-Hyp-Asn-Thr-Phe-Ind-Leu-Arg(Me)-Trp-NH2] (Ac-[dY][Hyp]NTF[X12]L[Arg(Me)]W-NH2) belongs 0.64 nM; to `CNC(=N)NCCC[C@H](NC(=O)[C@H](CC(C)C)NC(=O)[C@@H]1Cc2ccccc2N1C(=O)[C@H](Cc1ccccc1)NC(=O)[C@@H](NC(=O)[C@H](CC(N)=O)NC(=O)[C@@H]1CC(F)(F)CN1C(=O)[C@@H](Cc1ccco1)NC(C)=O)[C@@H](C)O)C(=O)N[C@@H](Cc1c[nH]c2ccccc12)C(N)=O` [YA-223, Ac-[3-(2-furyl)-D-Ala]-DifluoroPro-Asn-Thr-Phe-Ind-Leu-Arg(Me)-Trp-NH2] (Ac-[dAla(2-furyl)][Pro(4,4-F2)]NTF[X12]L[Arg(Me)]W-NH2), 4.4 nM; to `CNC(=N)NCCC[C@H](NC(=O)[C@H](CC(C)C)NC(=O)C1(NC(=O)[C@H](Cc2ccccc2)NC(=O)[C@@H](NC(=O)[C@H](CC(N)=O)NC(=O)[C@@H]2CC(F)(F)CN2C(=O)[C@@H](Cc2ccco2)NC(C)=O)[C@@H](C)O)CCCCC1)C(=O)N1Cc2ccccc2C[C@H]1C(N)=O` [YA-224, Ac-[3-(2-furyl)-D-Ala]-DifluoroPro-Asn-Thr-Phe-A6C-Leu-Arg(Me)-Tic-NH2] (Ac-[dAla(2-furyl)][Pro(4,4-F2)]NTF[Ac6c]L[Arg(Me)][Tic]-NH2), 6.5 nM.
With `CNC(=N)NCCC[C@H](NC(=O)[C@H](CC(C)C)NC(=O)[C@@H]1CCCCN1C(=O)[C@H](Cc1ccccc1)NC(=O)[C@@H](NC(=O)[C@H](CC(N)=O)NC(=O)[C@@H]1C[C@@H](O)CN1C(=O)[C@@H](Cc1ccc(O)cc1)NC(C)=O)[C@@H](C)O)C(=O)N[C@@H](Cc1c[nH]c2ccccc12)C(N)=O` [YA-226, Ac-(D-Tyr)-Hyp-Asn-Thr-Phe-(S-Pip)-Leu-Arg(Me)-Trp-NH2] (Ac-[dY][Hyp]NTF[Pip]L[Arg(Me)]W-NH2), the EC50 under setting [1] was 8 nM.
The same measure, in the same setting: in the case of `CNC(=N)NCCC[C@H](NC(=O)[C@H](CC(C)C)NC(=O)[C@H]1CCCCN1C(=O)[C@H](Cc1ccccc1)NC(=O)[C@@H](NC(=O)[C@H](CC(N)=O)NC(=O)[C@@H]1C[C@@H](O)CN1C(=O)[C@@H](Cc1ccc(O)cc1)NC(C)=O)[C@@H](C)O)C(=O)N[C@@H](Cc1c[nH]c2ccccc12)C(N)=O` [YA-227, Ac-(D-Tyr)-Hyp-Asn-Thr-Phe-(R-Pip)-Leu-Arg(Me)-Trp-NH2] (Ac-[dY][Hyp]NTF[dPip]L[Arg(Me)]W-NH2) it was 1.89 nM; in that of `CNC(=N)NCCC[C@H](NC(=O)[C@H](CC(C)C)NC(=O)C1(NC(=O)[C@H](Cc2ccccc2)NC(=O)[C@@H](NC(=O)[C@H](CC(N)=O)NC(=O)[C@@H]2CCCCN2C(=O)[C@@H](Cc2ccc(O)cc2)NC(C)=O)[C@@H](C)O)CCCCC1)C(=O)N[C@@H](Cc1c[nH]c2ccccc12)C(N)=O` [YA-228, Ac-D-Tyr-(S-Pip)-Asn-Thr-Phe-A6c-Leu-Arg(Me)-Trp-NH2] (Ac-[dY][Pip]NTF[Ac6c]L[Arg(Me)]W-NH2), 0.65 nM.
On the same count and under the same terms, in the case of `CNC(=N)NCCC[C@H](NC(=O)[C@H](CC(C)C)NC(=O)C1(NC(=O)[C@H](Cc2ccccc2)NC(=O)[C@@H](NC(=O)[C@H](CC(N)=O)NC(=O)[C@H]2CCCCN2C(=O)[C@@H](Cc2ccc(O)cc2)NC(C)=O)[C@@H](C)O)CCCCC1)C(=O)N[C@@H](Cc1c[nH]c2ccccc12)C(N)=O` [YA-229, Ac-(D-Tyr)-(R-Pip)-Asn-Thr-Phe-A6c-Leu-Arg(Me)-Trp-NH2] (Ac-[dY][dPip]NTF[Ac6c]L[Arg(Me)]W-NH2) it was 20.3 nM; in that of `CNC(=N)NCCC[C@H](NC(=O)[C@H](CC(C)C)NC(=O)NNC(=O)[C@H](Cc1ccccc1)NC(=O)[C@@H](NC(=O)[C@H](CC(N)=O)NC(=O)[C@@H]1C[C@@H](O)CN1C(=O)[C@H](Cc1ccc[n+](C)c1)NC(C)=O)[C@@H](C)O)C(=O)N[C@@H](Cc1c[nH]c2ccccc12)C(N)=O` [YA-239, Ac-[(S)-3-(2-amino-2-carboxyethyl)-1-methylpyridinium]-Hyp-Asn-Thr-Phe-azaGly-Leu-Arg(Me)-Trp-NH2] (Ac-[Ala(1-Me-3-pyridinium)][Hyp]NTF[azaGly]L[Arg(Me)]W-NH2), 1 nM.
`CNC(=N)NCCC[C@H](NC(=O)[C@H](CC(C)C)NC(=O)CNC(=O)N(Cc1ccccc1)NC(=O)[C@@H](NC(=O)[C@H](CC(N)=O)NC(=O)[C@@H]1CCCCN1C(=O)[C@@H](Cc1ccc(Cl)cc1Cl)NC(C)=O)[C@@H](C)O)C(=O)N[C@@H](Cc1c[nH]c2ccccc12)C(N)=O` [YA-241, Ac-[D-Phe(2,4-diCl)]—(S-Pip)-Asn-Thr-azaPhe-Gly-Leu-Arg(Me)-Trp-NH2] (Ac-[dPhe(2,4-Cl2)][Pip]NT[azaPhe]GL[Arg(Me)]W-NH2): the EC50 (Preliminary measurement data (GPR54) EC50, nM)) was determined as 0.93 nM.
